Experimental data reported in US6552014B2, “Methods of inhibiting platelet activation with selective serotonin reuptake inhibitors” (HeartDrug Research, L.L.C., priority 1999, dated 2003).

Assays:
[1] = test system: Vitronectin receptor; experiment: Flow cytometry of platelet antigen expression, platelet rich plasma; assay type: cell-based, human; settings: for Vitronectin (mean) log fluorescence intensity / Vitronectin (peak) log fluorescence intensity: PRP
Description: For ex vivo assessment of the SSRIs effect on a PAM, a level of a PAM can be assessed by flow cytometry by first obtaining a sample that comprises platelets and then contacting the sample with a platelet activation agonist, such as phorbol myristate acetate (PMA), ADP (adenosine diphosphate), thrombin, collagen, and/or TRAP (thrombin receptor activating peptide), under conditions suitable for activation of platelets in the sample. The sample is in contact with the agonist preferably for a period of time effective to maximally activate the platelets. […] Then the formation of the complex in the sample is determined (detected or measured). […] The blood-ACD mixture was centrifuged at 1000 r.p.m. for 10 minutes at room temperature. […] The PRP was then centrifuged at 3000 r.p.m. for 10 minutes. […] All cells were then divided into ten plastic capped tubes. Nine portions of washed platelets were incubated with 5 μfluorescein isothiocyanate (FITC)-conjugated antibodies in the dark at +4 °C for 30 minutes, and one part remained unstained and served as a negative control. […] The instrument was calibrated daily with fluorescence beads (CaliBRITE; Becton Dickinson) and measured FITC-conjugated fluorescence intensity. All parameters were obtained using four decade logarithmic amplification. The data was collected and stored in list mode, and then analyzed using CELLQuest® (version 1.2.2) software. Procedures are described in detail in (Gurbel, P. […] Serebruany, V. […] The levels of various PAMs were assess from samples of human volunteers.

[2] = test system: platelets; experiment: PFA-100 closure time, collagen/ADP cartridge; assay type: cell-based, human; settings: whole blood from a healthy volunteer, increasing concentrations
Description: A Platelet-Function Analyzer referred to as PFA-100® (Dade Behring, Deerfield Ill.) was used. The PFA-100® is a high shear-inducing analyzer that simulates primary hemostasis after injury to a small vessel under flow conditions. The PFA-100® system measures the time required for a patient's blood sample to form a“platelet plug” in the first phase of blood clot formation. That time interval, which normally ranges from one to three minutes, is called “closure time.” The device provides a constant negative pressure that aspirates whole blood which comes into contact with the collagen coated membrane and then passes through the aperture. The time required to obtain occlusion of the aperture is digitally recorded.
The PFA-100® system permits detection of platelet dysfunction during primary hemostasis, the first phase of hemostasis or coagulation. The system consists of a microprocessor-controlled instrument and disposable test cartridges that measure how well a patient's platelets adhere and aggregate to form a platelet plug.
An in vitro system for the detection of platelet dysfunction, PFA-100™, has been developed. It provides a quantitative measure of platelet function in anticoagulated whole blood. The system comprises a microprocessor-controlled instrument and a disposable test cartridge containing a biologically active membrane. […]

[3] = test system: platelets; experiment: Platelet aggregation in platelet rich plasma (ADP or collagen); assay type: cell-based, human; settings: for platelet aggregation in PRP (FIGS. 5 and 6), in words: post-coronary angioplasty patient, activated with ADP or collagen
Method: Trisodium citrate (3.8%) and whole blood is immediately mixed in a 1:9 ratio, and then centrifuged at 1200 g for 2.5 minutes, to obtain platelet-rich plasma (PRP), which is kept at room temperature for use within 1 hour for platelet aggregation studies. Platelet count is determined in each PRP sample with a Coulter Counter ZM (Coulter Co., Hialeah, Fla.). Platelet numbers are adjusted to 3.50×10^8/ml for aggregation with homologous platelet-poor plasma. PRP and whole blood aggregation tests are performed simultaneously. Whole blood is diluted 1.1 with the 0.5 ml PBS, and then swirled gently to mix . The cuvette with the stirring bar is placed in the incubation well and allowed to warm to 37° C. for 5 minutes. Then the sample are transferred to the assay well. An electrode is placed in the sample cuvette. Platelet aggregation is stimulated with 5 μM ADP, 1 μg/ml collagen, and 0.75 mM arachidonic acid. All agonists are obtained from Chronolog Corporation (Hawertown, Pa.). Platelet aggregation studies are performed using a Chrono-Log Whole Blood Lumi-Aggregometer (model 560 -Ca). Platelet aggregability are expressed as the percentage of light transmittance change from baseline using platelet-poor plasma as a reference at the end of recording time for plasma samples, or as a change in electrical impedance for whole blood samples. Aggregation curves are recorded for 4 minutes and analyzed according to internationally established standards using Aggrolinkg® software.

[4] = single doses in volunteers; cited from earlier work
[5] = healthy volunteers, desmethylsertraline 31.1 ng/ml
[6] = healthy volunteers, desmethylsertraline 64.2 ng/ml
[7] = healthy volunteers, desmethylsertraline 143 ng/ml
[8] = post-angioplasty patient on aspirin, desmethylsertraline 31.1 ng/ml
[9] = post-angioplasty patient on aspirin, desmethylsertraline 64.2 ng/ml
[10] = post-angioplasty patient on aspirin, desmethylsertraline 143 ng/ml
[11] = post-angioplasty patient on aspirin, sertraline 44.7 ng/ml
[12] = post-angioplasty patient on aspirin, sertraline 85.3 ng/ml

## N[C@H]1CC[C@@H](c2ccc(Cl)c(Cl)c2)c2ccccc21 [Desmethyl sertraline, N-desmethylsertraline]
[1]; [5]
  Vitronectin (mean) log fluorescence intensity: 677
  Vitronectin (peak) log fluorescence intensity: 620
[1]; [6]
  Vitronectin (mean) log fluorescence intensity: 623
  Vitronectin (peak) log fluorescence intensity: 508
[1]; [7]
  Vitronectin (mean) log fluorescence intensity: 732
  Vitronectin (peak) log fluorescence intensity: 670
[1]; [8]
  Vitronectin (mean) log fluorescence intensity: 504
  Vitronectin (peak) log fluorescence intensity: 560
[1]; [9]
  Vitronectin (mean) log fluorescence intensity: 380
  Vitronectin (peak) log fluorescence intensity: 425
[1]; [10]
  Vitronectin (mean) log fluorescence intensity: 482
  Vitronectin (peak) log fluorescence intensity: 544
[2]
  closure time (time for a platelet plug to form) (FIG. 11), in words: decrease in the time
[3]; PRP
  platelet aggregation in PRP (FIGS. 5 and 6), in words: decrease in platelet aggregation

## CN[C@H]1CC[C@@H](c2ccc(Cl)c(Cl)c2)c2ccccc21 [sertraline]
[1]; healthy volunteers, sertraline 18.1 ng/ml
  Vitronectin (mean) log fluorescence intensity: 810
[1]; healthy volunteers, sertraline 44.7 ng/ml
  Vitronectin (mean) log fluorescence intensity: 510
[1]; healthy volunteers, sertraline 85.3 ng/ml
  Vitronectin (mean) log fluorescence intensity: 667
[1]; post-angioplasty patient on aspirin, sertraline 18.1 ng/ml
  Vitronectin (mean) log fluorescence intensity: 405
[1]; [11]
  Vitronectin (mean) log fluorescence intensity: 344
  Vitronectin (peak) log fluorescence intensity: 393
[1]; [12]
  Vitronectin (mean) log fluorescence intensity: 529
  Vitronectin (peak) log fluorescence intensity: 585
[1]; plasma concentration 85.3 ng/ml, equivalent to 200 mg/daily
  surface expression of vitronectin receptor, in words: diminished surface expression
[2]
  closure time (time for a platelet plug to form) (FIG. 11), in words: decrease in the time
[3]; PRP, healthy volunteer, induced with ADP or collagen, sertraline 18.1, 44.7 or 85.3 ng/ml
  percent of platelet aggregation (FIGS. 2 and 3), in words: decreases with increasing amounts of sertraline
[3]; PRP
  platelet aggregation in PRP (FIGS. 5 and 6), in words: decrease in platelet aggregation
[3]; healthy controls and patients with coronary artery disease, including those on aspirin
  ADP-, and collagen-induced platelet aggregation in plasma (in vitro), in words: Dose-dependent inhibition
[4]
  dose at which sedative potential is evident: ≥ 200 mg/daily
